Measurements taken from patent publication US11597704B2, “2,4-diaminoquinazoline derivatives and medical uses thereof” (Janssen Sciences Ireland Unlimited Company, priority 2018, dated 2023).

Columns and labels:
[1] = target: T1, human TLR7 (Homo sapiens, UniProt Q9NYK1); experiment: TLR7 NFκB-luc cellular reporter assay in transiently transfected HEK293 cells; format: cell-based; settings: lowest effective concentration; HEK293 cells transfected with wild type TLR7 and NFκB-luc reporter, 6 h incubation
T1 construct: expressed in transfected cells; host or cells: HEK293
T1 sequence (Q9NYK1 27-1049): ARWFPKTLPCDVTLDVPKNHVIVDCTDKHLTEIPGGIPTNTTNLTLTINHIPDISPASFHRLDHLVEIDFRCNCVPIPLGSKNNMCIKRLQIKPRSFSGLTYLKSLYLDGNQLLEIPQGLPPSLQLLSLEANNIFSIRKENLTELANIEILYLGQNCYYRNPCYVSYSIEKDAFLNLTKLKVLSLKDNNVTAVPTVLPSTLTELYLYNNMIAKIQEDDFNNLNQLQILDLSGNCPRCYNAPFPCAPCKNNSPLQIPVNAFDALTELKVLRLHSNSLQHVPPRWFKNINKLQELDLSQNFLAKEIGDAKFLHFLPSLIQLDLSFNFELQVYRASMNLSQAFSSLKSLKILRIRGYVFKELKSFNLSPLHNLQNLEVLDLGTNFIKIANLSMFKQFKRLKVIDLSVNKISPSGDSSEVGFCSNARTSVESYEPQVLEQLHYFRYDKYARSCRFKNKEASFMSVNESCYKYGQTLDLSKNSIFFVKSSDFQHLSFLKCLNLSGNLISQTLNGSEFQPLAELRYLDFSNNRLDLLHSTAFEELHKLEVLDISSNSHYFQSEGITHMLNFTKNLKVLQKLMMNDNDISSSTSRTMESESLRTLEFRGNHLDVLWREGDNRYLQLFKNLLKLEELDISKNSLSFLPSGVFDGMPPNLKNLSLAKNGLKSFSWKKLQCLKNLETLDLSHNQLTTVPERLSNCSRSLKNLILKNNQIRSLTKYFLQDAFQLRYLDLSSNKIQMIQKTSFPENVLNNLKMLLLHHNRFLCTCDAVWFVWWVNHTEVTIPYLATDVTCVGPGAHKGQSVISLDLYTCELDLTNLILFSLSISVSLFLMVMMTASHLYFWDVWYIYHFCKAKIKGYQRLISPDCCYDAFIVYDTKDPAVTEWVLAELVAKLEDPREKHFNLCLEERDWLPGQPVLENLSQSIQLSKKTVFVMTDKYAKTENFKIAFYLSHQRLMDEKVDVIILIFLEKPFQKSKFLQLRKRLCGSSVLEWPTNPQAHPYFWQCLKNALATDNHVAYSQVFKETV
Protocol: (§1) The ability of compounds to activate human TLR7 and/or TLR8 was assessed in a cellular reporter assay using HEK293 cells transiently transfected with a TLR7 or TLR8 expression vector and NFκB-luc reporter construct. In one instance, the TLR expression construct expresses the respective wild type sequence or a mutant sequence comprising a deletion in the second leucine-rich repeat of the TLR.
(§2) HEK293 cells were grown in culture medium (DMEM supplemented with 10% FCS and 2 mM Glutamine). For transfection of cells in 10 cm dishes, cells were detached with Trypsin-EDTA, transfected with a mix of CMV-TLR7 or TLR8 plasmid (750 ng), NFκB-luc plasmid (375 ng) and a transfection reagent and incubated 24 h at 37° C. in a humidified 5% C02 atmosphere. Transfected cells were then detached with Trypsin-EDTA, washed in PBS and re-suspended in medium to a density of 1.67×10^5 cells/mL. Thirty microliters of cells were then dispensed into each well in 384-well plates, where 10 μL of compound in 4% DMSO was already present. Following 6 h incubation at 37° C., 5% CO2, the luciferase activity was determined by adding 15 μl of STEADY LITE PLUS substrate (PERKIN ELMER) to each well and readout performed on a VIEWLUX ULTRAHTS microplate imager (PERKIN ELMER). Dose response curves were generated from measurements performed in quadruplicates. Lowest effective concentrations (LEC) values, defined as the concentration that induces an effect which is at least two-fold above the standard deviation of the assay, were determined for each compound.

[2] = target: T2, human TLR8 (Homo sapiens, UniProt Q9NR97); experiment: TLR8 NFκB-luc cellular reporter assay in transiently transfected HEK293 cells; format: cell-based; settings: lowest effective concentration; HEK293 cells transfected with wild type TLR8 and NFκB-luc reporter, 6 h incubation
T2 construct: expressed in transfected cells; host or cells: HEK293
T2 sequence (Q9NR97 27-1041): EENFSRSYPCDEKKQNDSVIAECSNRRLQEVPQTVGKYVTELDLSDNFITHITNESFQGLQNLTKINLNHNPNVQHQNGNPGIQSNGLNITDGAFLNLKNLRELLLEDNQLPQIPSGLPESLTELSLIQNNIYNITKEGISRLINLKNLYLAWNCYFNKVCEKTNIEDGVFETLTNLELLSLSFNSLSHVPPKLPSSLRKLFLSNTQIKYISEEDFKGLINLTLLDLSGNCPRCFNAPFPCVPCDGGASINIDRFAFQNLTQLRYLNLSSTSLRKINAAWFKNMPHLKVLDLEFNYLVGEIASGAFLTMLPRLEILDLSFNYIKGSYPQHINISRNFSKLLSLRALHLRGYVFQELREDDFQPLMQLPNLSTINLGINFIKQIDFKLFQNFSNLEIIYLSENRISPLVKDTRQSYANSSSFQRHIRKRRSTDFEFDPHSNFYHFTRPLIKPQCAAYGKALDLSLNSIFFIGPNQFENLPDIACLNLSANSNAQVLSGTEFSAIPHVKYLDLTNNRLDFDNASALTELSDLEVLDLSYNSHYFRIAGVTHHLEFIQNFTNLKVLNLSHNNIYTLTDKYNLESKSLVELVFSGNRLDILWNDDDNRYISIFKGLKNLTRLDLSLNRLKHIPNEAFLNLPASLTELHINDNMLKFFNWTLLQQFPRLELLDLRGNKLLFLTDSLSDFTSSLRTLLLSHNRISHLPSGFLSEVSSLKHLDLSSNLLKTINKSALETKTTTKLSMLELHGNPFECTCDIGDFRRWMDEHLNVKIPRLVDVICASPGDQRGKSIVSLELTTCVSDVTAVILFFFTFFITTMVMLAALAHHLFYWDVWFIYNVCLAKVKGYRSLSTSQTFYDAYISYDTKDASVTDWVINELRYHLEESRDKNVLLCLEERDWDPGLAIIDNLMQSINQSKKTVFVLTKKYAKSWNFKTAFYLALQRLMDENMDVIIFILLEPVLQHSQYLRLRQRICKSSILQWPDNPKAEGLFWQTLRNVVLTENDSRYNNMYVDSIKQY
Protocol: as §1, §2

hTLR7-wt (LEC) [1]: > 100 µM
hTLR8-wt (LEC) [2]: 0.57 µM
Compound: CCCC[C@H](CO)Nc1nc(N)nc2cc(C(=O)OC)ccc12 [Compound 18, Methyl (R)-2-amino-4-((1-hydroxyhexan-2-yl)amino)quinazoline-7-carboxylate]
